Assay results as given in paper PMC9151520 (Archives of Toxicology, 2022).
pEC50: −log10 of the molar value. Several values for one entry are separate records, joined by “and”; a condition that tells them apart may be missing. Equal entries are not always repeated. Structures can show the parent of a compound that is named as a salt. Where two headings read alike, the source gives them in different places.

Experiments:
[1] = system: p53 signaling (p53RE-bla HCT-116 cells)
[2] = system: p53 signaling (p53RE-bla HCT-116 cells); assay: cells; type: cell-based
[3] = system: p53RE-bla HCT-116 cells
[4] = system: p53RE-bla HCT-116 cells; assay: cells; conditions: Homo sapiens
[5] = system: p53 signaling (p53RE-bla HCT-116 cells); remark: listed apart in the source
[6] = Homo sapiens, HCT-116, read-out: EC50, p53 activation, cherry pick confirmation
[7] = Homo sapiens, HCT-116, read-out: EC50, p53 activation, primary screening
[8] = Homo sapiens, HCT-116, read-out: Efficacy, p53 activation, cherry pick confirmation
[9] = Homo sapiens, HCT-116, read-out: Efficacy, p53 activation, primary screening
[10] = HCT-116, read-out: EC50, viability, cherry pick confirmation
[11] = HCT-116, read-out: EC50, viability, primary screening
[12] = Homo sapiens, HCT-116, read-out: p53 activation EC50, primary screening
[13] = Homo sapiens, HCT-116, read-out: p53 activation efficacy, primary screening
[14] = HCT-116, read-out: Viability EC50, cherry pick confirmation
[15] = HCT-116, read-out: Viability EC50, primary screening
[16] = Homo sapiens, HCT-116, read-out: p53 activation EC50, cherry pick confirmation
[17] = Homo sapiens, HCT-116, read-out: p53 activation efficacy, cherry pick confirmation

| Compound | EC50, p53 activation, cherry pick confirmation [1] | EC50, p53 activation, primary screening [1] | Efficacy, p53 activation, cherry pick confirmation [1] | Efficacy, p53 activation, primary screening [1] | pEC50 [2, 6] | pEC50 [2, 7] | EC50, p53 activation, cherry pick confirmation [5] | Efficacy, p53 activation, cherry pick confirmation [5] | p53 activation EC50, cherry pick confirmation [1] | p53 activation EC50, primary screening [1] | p53 activation efficacy, cherry pick confirmation [1] | p53 activation efficacy, primary screening [1] | pEC50 [2, 12] | Emax [2, 13] [%] | Viability EC50, cherry pick confirmation [3] | pEC50 [4, 14] | p53 activation EC50, cherry pick confirmation [5] | p53 activation EC50, primary screening [5] | p53 activation efficacy, cherry pick confirmation [5] | p53 activation efficacy, primary screening [5] | also measured |
| --- | --- | --- | --- | --- | --- | --- | --- | --- | --- | --- | --- | --- | --- | --- | --- | --- | --- | --- | --- | --- | --- |
| Cc1nc(N)nc(N)c1-c1ccc(Cl)c(Cl)c1 [Methodichlorophen] | inactive | inactive | inactive | inactive | 5.05 | 5.23 | inactive | inactive |  |  |  |  |  |  |  |  |  |  |  |  | Emax [2, 8]: 31.4%; Emax [2, 9]: 42.9%; EC50, viability, cherry pick confirmation [3]: inactive; EC50, viability, primary screening [3]: inactive; Efficacy, viability, primary screening [3]: inactive; pEC50 [4, 10]: 5.80; EC50, p53 activation, primary screening [5]: inactive; Efficacy, p53 activation, primary screening [5]: inactive |
| CO[C@@]12[C@H](COC(N)=O)C3=C(C(=O)C(C)=C(N)C3=O)N1C[C@@H]1N[C@@H]12 [Mitomycin C] | inactive | inactive | inactive | inactive | 5.67 |  | inactive | inactive |  |  |  |  |  |  |  |  |  |  |  |  | Emax [2, 8]: 134%; EC50, viability, cherry pick confirmation [3]: inactive; EC50, viability, primary screening [3]: inactive; Efficacy, viability, primary screening [3]: inactive; pEC50 [4, 10]: 4.75 |
| CN(C)c1ccc(C(=C2C=CC(=[N+](C)C)C=C2)c2ccc(N(C)C)cc2)cc1 [Gentian Violet] | inactive | inactive | inactive | inactive | 4.63 | 4.29 | inactive | inactive |  |  |  |  |  |  |  |  |  |  |  |  | Emax [2, 8]: 48.7%; Emax [2, 9]: 65.5%; pEC50 ([3]; read-out: EC50, viability, cherry pick confirmation): 4.56 and 4.67; pEC50 ([3]; read-out: EC50, viability, primary screening): 4.80 and 4.60; pEC50 [4, 10]: 4.66; pEC50 [4, 11]: 4.53; EC50, p53 activation, primary screening [5]: inactive; Efficacy, p53 activation, primary screening [5]: inactive |
| COc1cc(/C=C/C(=O)CC(=O)/C=C/c2ccc(O)c(OC)c2)ccc1O [Curcumin] |  |  |  |  |  |  |  |  | inactive | inactive | inactive | inactive | 4.81 | 65.1 | inactive | 4.79 | inactive | inactive | inactive | inactive | p53 activation EC50, cherry pick confirmation [2]: inactive; p53 activation efficacy, cherry pick confirmation [2]: inactive; pEC50 ([3]; read-out: Viability EC50, primary screening): 4.42 and 4.33; pEC50 [4, 15]: 4.50 |
| CC(C)=CCC1=C(O)C(=O)c2ccccc2C1=O [Lapachol] |  |  |  |  |  |  |  |  |  |  |  |  |  |  |  |  |  |  |  |  | p53 activation EC50 [1]: inactive; p53 activation efficacy [2]: 104.839; pEC50 ([2]; read-out: p53 activation EC50): 5.47; Viability EC50 [3]: inactive; pEC50 ([4]; HCT-116, read-out: Viability EC50): 5.86; p53 activation EC50 [5]: inactive |
| Oc1c(I)cc(I)cc1I [2,4,6-Triiodophenol] | inactive | inactive | inactive | inactive |  | 4.68 | inactive | inactive |  |  |  |  |  |  |  |  |  |  |  |  | EC50, p53 activation, cherry pick confirmation [2]: inactive; Efficacy, p53 activation, cherry pick confirmation [2]: inactive; Emax [2, 9]: 27.1%; EC50, viability, cherry pick confirmation [3]: inactive; EC50, viability, primary screening [3]: inactive; pEC50 [4, 11]: 4.72; EC50, p53 activation, primary screening [5]: inactive; Efficacy, p53 activation, primary screening [5]: inactive |
| Oc1c(Cl)cc(Cl)c(Cl)c1Cc1c(O)c(Cl)cc(Cl)c1Cl [Hexachlorophene] |  |  |  |  |  |  |  |  | inactive | inactive | inactive | inactive | 4.70 | 45.4 | inactive | 5.65 | inactive | inactive | inactive | inactive | pEC50 [2, 16]: 4.75; Emax [2, 17]: 99.6% |
| CC(C)(C)[C@H]1CC[C@H](CC2=C(O)C(=O)c3ccccc3C2=O)CC1 [Buparvaquone] |  |  |  |  |  |  |  |  | inactive | inactive | inactive | inactive | 5.85 | 33.8 | inactive | 5.70 | inactive | inactive | inactive | inactive | p53 activation EC50, cherry pick confirmation [2]: inactive; p53 activation efficacy, cherry pick confirmation [2]: inactive; Viability EC50, primary screening [3]: inactive; Viability efficacy, primary screening [3]: inactive |
| CCOC(=O)C1(c2ccccc2)CCN(CCC(C#N)(c2ccccc2)c2ccccc2)CC1 [Diphenoxylate hydrochloride] |  |  |  |  |  |  |  |  | inactive | inactive | inactive | inactive | 5.16 | 77.1 | inactive | 5.50 | inactive | inactive | inactive | inactive | pEC50 [2, 16]: 5.08; Emax [2, 17]: 152%; Viability EC50, primary screening [3]: inactive; Viability efficacy, primary screening [3]: inactive |
| CN(C)c1ccc2nc3ccc(=[N+](C)C)cc-3sc2c1 [Methylene blue] |  |  |  |  |  |  |  |  | inactive | inactive | inactive | inactive | 4.99 | 53.4 | inactive | 4.80 | inactive | inactive | inactive | inactive | pEC50 [2, 16]: 4.81; Emax [2, 17]: 53.2%; Viability EC50, primary screening [3]: inactive; Viability efficacy, primary screening [3]: inactive |
| CC[C@@]1(O)C(=O)OCc2c1cc1n(c2=O)Cc2cc3c(CN(C)C)c(O)ccc3nc2-1 [Topotecan hydrochloride] | inactive | inactive | inactive | inactive | 6.23 | 7.11 | inactive | inactive |  |  |  |  |  |  |  |  |  |  |  |  | Emax [2, 8]: 179%; Emax [2, 9]: 69.5%; EC50, viability, cherry pick confirmation [3]: inactive; EC50, viability, primary screening [3]: inactive; Efficacy, viability, primary screening [3]: inactive; pEC50 [4, 10]: 5.40; EC50, p53 activation, primary screening [5]: inactive; Efficacy, p53 activation, primary screening [5]: inactive |
| Oc1cc(Cl)c(Cl)c(Cl)c1 [3,4,5-Trichlorophenol] | inactive | inactive | inactive | inactive | 4.32 | 4.40 | inactive | inactive |  |  |  |  |  |  |  |  |  |  |  |  | Emax [2, 8]: 40.3%; Emax [2, 9]: 25.7%; EC50, viability, cherry pick confirmation [3]: inactive; EC50, viability, primary screening [3]: inactive; Efficacy, viability, primary screening [3]: inactive; pEC50 [4, 10]: 4.56; EC50, p53 activation, primary screening [5]: inactive; Efficacy, p53 activation, primary screening [5]: inactive |
| CC(C)C[C@H](NC(=O)[C@H](Cc1ccccc1)NC(=O)c1cnccn1)B(O)O [Bortezomib] |  |  |  |  |  |  |  |  | inactive | inactive | inactive | inactive | 7.91 | 104 | inactive | 6.40 | inactive | inactive | inactive | inactive | pEC50 [2, 16]: 7.00; Emax [2, 17]: 134%; Viability EC50, primary screening [3]: inactive; pEC50 [4, 15]: 6.37 |
